Laboratory results: the NIST ThermoML archive (doi:10.1021/je049787p)
Numbers after ± are expanded uncertainties.

Conditions: 101.3 kPa, Liquid; for electrical conductivity: Alternating current cell with electrodes

SMILES: C=CCn1cc[n+](C)c1.[Cl-] [1-allyl-3-methylimidazolium chloride]
- viscosity (293.15 K): 66 ± 10 mPa·s
- electrical conductivity (293.15 K): 0.00382 ± 0.00038 S/m
- viscosity (303.15 K): 44.7 ± 5.9 mPa·s
- electrical conductivity (303.15 K): 0.0044 ± 0.00044 S/m
- viscosity (313.15 K): 25.3 ± 3.5 mPa·s
- electrical conductivity (313.15 K): 0.00501 ± 0.0005 S/m
- viscosity (323.15 K): 20.6 ± 2.8 mPa·s
- electrical conductivity (323.15 K): 0.00562 ± 0.00056 S/m
- viscosity (333.15 K): 16.2 ± 2.3 mPa·s
- electrical conductivity (333.15 K): 0.00624 ± 0.00062 S/m
